According to patent US12180252B2, “Peptide derived from PEP27 peptide and uses thereof” (priority 2021, dated 2024):
Read-outs that look alike come from different tables or passages of the source. Where a SMILES comes first, the peptide text is derived from it.

How the values were obtained:
B. subtilis KCTC1998 = assay type: cell-based, Bacillus subtilis; details: KCTC1998, 18 h
Description: (§1) In order to evaluate the antimicrobial activity of the peptides prepared by the method of above 1, a minimal inhibitory concentration (MIC) value as the minimum concentration of a peptide, in which cells are not divided, was measured.
(§2) Specifically, the strains shown in Table 3 below were purchased, cultured in a medium having a constitutional composition suitable for each strain to a mid-log phase, and then diluted to a concentration of 2×10^4 cells/100 μl to prepare the product on a micro-titration plate (Nunc, USA). Then, PEP27, PEP27-1, PEP27-2 or PEP27-5 peptide synthesized in the above 1 was added to each well by serial dilution ½ times, followed by incubation at 37° C. for 18 hours.

L. monocytogens KCTC3710 = assay type: cell-based, Listeria monocytogenes; details: KCTC3710, 18 h
Description: as §1, §2

E. coli ATCC25922 = assay type: cell-based, Escherichia coli; details: ATCC25922, 18 h
Description: as §1, §2

E. coli ATCC27325 = assay type: cell-based, Escherichia coli; details: ATCC27325, 18 h
Description: as §1, §2

E. coli CCARM1229 = assay type: cell-based, Escherichia coli; details: E. coli CCARM1229, antibiotics-tolerant; 37° C., 18 hours
Description: as §1, §2

E. coli CCARM1238 = assay type: cell-based, Escherichia coli; details: E. coli CCARM1238, antibiotics-tolerant; 37° C., 18 hours
Description: as §1, §2

P. aeruginosa 4007 = test: microbe, parasite or virus in culture; details: 4007, 18 h
Description: as §1, §2
(§3) Specifically, subject strains were prepared by the method of above 2, and were treated with the antibiotics, that is, meropenem, ceftazidime, ceftriaxone or vancomycin, respectively, followed by determining MICs of the antibiotics.

P. aeruginosa 4891 = test: microbe, parasite or virus in culture; details: 4891, 18 h
Description: as §1, §2, §3

P. aeruginosa ATCC15692 = test: microbe, parasite or virus in culture; details: ATCC15692, 18 h
Description: as §1, §2, §3

P. aeruginosa ATCC27853 = test: microbe, parasite or virus in culture; details: ATCC27853, 18 h
Description: as §1, §2, §3

S. aureus ATCC25923 = test: microbe, parasite or virus in culture; details: ATCC25923, 18 h
Description: as §1, §2, §3

S. aureus ATCC29213 = test: microbe, parasite or virus in culture; details: ATCC29213, 18 h
Description: as §1, §2, §3

S. aureus CCARM3089 = test: microbe, parasite or virus in culture; details: S. aureus CCARM3089, antibiotics-tolerant; 37° C., 18 hours
Description: as §1, §2, §3

S. aureus CCARM3090 = test: microbe, parasite or virus in culture; details: S. aureus CCARM3090, antibiotics-tolerant; 37° C., 18 hours
Description: as §1, §2, §3

S. aureus CCARM3518 = test: microbe, parasite or virus in culture; details: S. aureus CCARM3518, antibiotics-tolerant; 37° C., 18 hours
Description: as §1, §2, §3

S. aureus MW2 = test: microbe, parasite or virus in culture; details: S. aureus MW2, antibiotics-tolerant; 37° C., 18 hours
Description: as §1, §2, §3

S. aureus USA300 = test: microbe, parasite or virus in culture; details: S. aureus USA300, antibiotics-tolerant; 37° C., 18 hours
Description: as §1, §2, §3

[1] = system: Sa. typhimurium CCARM8007; assay type: cell-based, Salmonella typhimurium; details: Sa. typhimurium CCARM8007, antibiotics-tolerant; 37° C., 18 hours
Description: as §1, §2

[2] = system: Sa. typhimurium CCARM8009; assay type: cell-based, Salmonella typhimurium; details: Sa. typhimurium CCARM8009, antibiotics-tolerant; 37° C., 18 hours
Description: as §1, §2

Sa. typhimurium KCTC1926 = assay type: cell-based, Salmonella typhimurium; details: KCTC1926, 18 h
Description: as §1, §2

[3] = system: red blood cells of a rat (Balb/c); details: 37° C., 1 hour
Description: In order to compare the cytotoxicity of the peptides prepared by the method of above 1, erythrocyte hemolytic activity of each of the synthesized peptides was measured.
Specifically, red blood cells of a rat (Balb/c, 6 weeks old, female) were diluted with PBS (pH 7.0) to a concentration of 8%, and PEP27, PEP27-1, PEP27-2 and PEP27-5 peptides were used for treatment of the cells at concentrations of 3.13, 6.25, 12.5, 25.01 50.0 and 100.0 μM/well, respectively, followed by reaction at 37° C. for 1 hour. Then, an amount of hemoglobin contained in the supernatant obtained by centrifugation at 1,000×g was determined by measuring the absorbance at a wavelength of 414 nm. As a control which is a standard for the degree of cell destruction, the absorbance of the obtained supernatant was measured after treatment using 1% Triton X-100 (Sigma, USA) and reaction at 37° C. for 1 hour. With reference to 100% erythrocytes hemolysis activity, hemolysis of each peptide was calculated from the measured absorbance using Equation 1 below. Erythrocyte destruction ability (%)=(Absorbance A−Absorbance B)/(Absorbance C−Absorbance B)×100 [Equation 1]
(wherein, absorbance A represents the absorbance of a reaction solution treated with each peptide measured at a wavelength of 414 nm; absorbance B represents the absorbance of a reaction solution treated with PBS measured at a wavelength of 414 nm; and absorbance C represents the absorbance of a reaction solution treated with 1% Triton X-100 measured at a wavelength of 414 nm).

MTT cytotoxicity = assay type: cell-based, human; details: human; 100 μM, 24 h, MTT, HaCaT and MCF-7 cells; read-out: cell viability
Description: Specifically, Thiazolyl blue tetrazolium bromide (MTT, Merck KGaA) was used to determine the cytotoxicity of PEP27 and its analogs against HaCaT (human keratinocyte […], n=4 per condition) and MCF-7 (human breast adenocarcinoma, n=3 per condition) cells. The cells were cultured in Dulbecco's modified Eagle's medium (DMEM) supplemented with 10 heat-inactivated fetal bovine serum (FBS, Gibco, Grand Island, NY, USA) and 1% penicillin-streptomycin (Gibco) at a density of 2×10^4 cells/well (96-well plate). Peptides were then added at various concentrations and incubated for 24 h at 37° C., after which MTT (final concentration, 0.5 mg/mL) was added to each well and incubated for 4 h. The formazan product was solubilized in DMSO, and the absorbance at 570 nm was measured to […] cytotoxicity. Cells treated with 0.1% Triton X-100 were used as the 100% cytotoxic control sample.

Compound: CSCC[C@H](N)C(=O)N[C@@H](Cc1c[nH]c2ccccc12)C(=O)N[C@@H](CCCCN)C(=O)N[C@@H](Cc1c[nH]c2ccccc12)C(=O)N[C@@H](Cc1ccccc1)C(=O)N[C@@H](Cc1c[nH]cn1)C(=O)N[C@@H](CC(N)=O)C(=O)N[C@H](C(=O)N[C@@H](CC(C)C)C(=O)N[C@@H](CO)C(=O)N[C@@H](CO)C(=O)NCC(=O)N[C@@H](CCC(N)=O)C(=O)N[C@@H](CC(C)C)C(=O)N[C@@H](CC(C)C)C(=O)N[C@@H](C)C(=O)N[C@@H](CC(=O)O)C(=O)N[C@@H](CCCCN)C(=O)N[C@@H](Cc1c[nH]c2ccccc12)C(=O)N[C@@H](Cc1c[nH]c2ccccc12)C(=O)N[C@@H](C)C(=O)N[C@@H](Cc1c[nH]c2ccccc12)C(=O)N[C@@H](Cc1c[nH]c2ccccc12)C(=O)N[C@@H](Cc1ccc(O)cc1)C(=O)N[C@@H](CC(N)=O)C(=O)N[C@@H](Cc1c[nH]c2ccccc12)C(=O)N[C@@H](Cc1c[nH]c2ccccc12)C(N)=O)C(C)C [PEP27-5] (H-MWKWFHNVLSSGQLLADKWWAWWYNWW-NH2)
- Minimal inhibitory concentration (B. subtilis KCTC1998): >64 µM
- Minimal inhibitory concentration (L. monocytogens KCTC3710): >64 µM
- Minimal inhibitory concentration (E. coli ATCC25922): >64 µM
- Minimal inhibitory concentration (E. coli ATCC27325): >64 µM
- Minimal inhibitory concentration (E. coli CCARM1229): >64 µM
- Minimal inhibitory concentration (E. coli CCARM1238): >64 µM
- Minimal inhibitory concentration (P. aeruginosa 4007): >64 µM
- Minimal inhibitory concentration (P. aeruginosa 4891): >64 µM
- Minimal inhibitory concentration (P. aeruginosa ATCC15692): >64 µM
- Minimal inhibitory concentration (P. aeruginosa ATCC27853): >64 µM
- Minimal inhibitory concentration (S. aureus ATCC25923): >64 µM
- Minimal inhibitory concentration (S. aureus ATCC29213): >64 µM
- Minimal inhibitory concentration (S. aureus CCARM3089): >64 µM
- Minimal inhibitory concentration (S. aureus CCARM3090): >64 µM
- Minimal inhibitory concentration (S. aureus CCARM3518): >64 µM
- Minimal inhibitory concentration (S. aureus MW2): >64 µM
- Minimal inhibitory concentration (S. aureus USA300): >64 µM
- Minimal inhibitory concentration [1]: >64 µM
- Minimal inhibitory concentration [2]: >64 µM
- Minimal inhibitory concentration (Sa. typhimurium KCTC1926): >64 µM
- Erythrocyte destruction ability ([3]; Peptide concentration 3.13 μM): 0%
- Erythrocyte destruction ability ([3]; Peptide concentration 6.25 μM): 0%
- Erythrocyte destruction ability ([3]; Peptide concentration 12.5 μM): 0%
- Erythrocyte destruction ability ([3]; Peptide concentration 25 μM): 0%
- Erythrocyte destruction ability ([3]; Peptide concentration 50 μM): 2.34%
- Erythrocyte destruction ability ([3]; Peptide concentration 100 μM, 100% = 1% Triton X-100): 3.25%
- viability at 24 h, 100 µM (MTT cytotoxicity): 100%
